“Also recorded” adds a separate entry of the source. Where two headings read alike, the source gives them in different places. Marks after values point to notes of the source that are not given here.
Experiments:
[1] = pH in unbuffered solution; type: physicochemical
[2] = test system: canine model of septic shock (Pseudomonas aeruginosa); conditions: for Systemic vascular resistance: mean (SD in the cell below); for ALT (alanine transaminase) / AST (aspartate transaminase) / Arterial pH / CK (creatine kinase) / Cardiac output / LD (lactate dehydrogenase) / Lactate / Mean arterial pressure / Oxygen delivery / Pulmonary wedge pressure / Stroke work index / Troponin / Heart Rates: mean ± SD; for effect of treatment on mean arterial pressure (MAP): infusion started at septic shock condition, 3 hr and 5 hr post treatment; for effect of treatment on blood lactate concentration: over the course of the study; for effect of treatment on heart rate (HR): 3 hrs and 5 hrs posttreatment vs other septic groups
Protocol: We used a bacteremic model of Pseudomonas aeruginosa in this study as previously described (20). We used this particular model, since we wanted to measure mitochondrial function and LA under conditions of an acute and intensive inflammatory response analogous to that which would occur in a severe bout of SS in the clinical condition. […] Over the course of the experiment, we studied the animals (18 to 26 kg) while anesthetized with sufentanil citrate (0.05-0.3 ug/kg/min) and midazolam (5 ug/kg/min), and while being ventilated receiving 100% oxygen to maintain arterial around PO2 ˜400 mmHg. We adjusted the ventilator rate over the course of the study to attenuate the development of the metabolic acidosis that is usually observed (20).
To assess hemodynamics in this model, we inserted vascular catheters under sterile conditions as previously described (20), after which we connected the catheters to pressure transducers (Cobe, Argon) that were referenced relative to the left atrium and connected to a chart recorder (Astro-Med, W Warwick, R.I.). To measure MAP, we inserted a polyethylene catheter into the right femoral artery, while to measure pulmonary vascular pressures, we inserted a Swanz-Ganz catheter (Edwards Lifesciences, Irvine, Calif.) by percutaneous techniques through the right jugular vein. From the Swanz-Ganz catheter, we obtained measurements of pulmonary arterial pressure (Ppa), wedge pressure (Pwp), and right atrial pressure (Rap), as well as determinations of thermodilution cardiac output (CO).
From the hemodynamic measurements, we calculated SV from CO/heart rates (HR), stroke work (SW) from [SV*(MAP−Pwp)], and systemic vascular resistance (SVR) from [(MAP-Rap)/CO)*80]. We also normalized measurements of SV, SW, and CO and organ oxygen delivery (DO2) to body weight. We calculated DO2 from CO×Hb×1.34 ml oxygen per gram of Hb, since Hb was 100% saturated at a PO2 of ˜400 mmHg. From the arterial catheter and distal port of the Swanz-Ganz catheter, we also took arterial and mixed venous blood samples, respectively, for analyses of PO2, PCO2, and pH.
In addition, we placed another polyethylene catheter into the left jugular vein, also by percutaneous techniques, for infusion of the bacteria and intravenous fluids and for obtaining blood chemistry and hematological samples. Since the baseline Pwp found in this model usually averages≈8-10 mmHg, we infused normal saline solution as necessary to maintain Pwp relatively constant over the duration of this study. […] The Clinical Chemistry Laboratory at the Health Sciences Centre performed the clinical laboratory tests.
We included 5 groups of animals in the initial phase of this study. These groups included a septic control group, a non-septic control group, a norepinephrine (NE) septic group, a gentisic acid sodium salt (GSS) septic group, and a GSS non-septic group. In each group, we made baseline measurements of hemodynamics and blood parameters after approximately 1 hr period of stability. In the septic groups, after initiation of the bacterial infusion, we repeated the measurements in the septic shock condition. […] In the septic control group, after the SS condition, we started an infusion of 5% dextrose in water (D5W) at approximately 40 ml/hr for the remainder of the study, since D5W was the diluent for both the NE and GSS treatments.
In all groups, we then made posttreatment measurements at 3 hrs and 5 hrs after completion of the septic shock/sham-shock determinations.
In this supplemental study, we examined the effect of gallic acid on hemodynamics and mitochondrial function in our Pseudomonas aeruginosa model in a manner identical to that described for GSS treatment.

[3] = septic dogs, 3 hrs posttreatment
[4] = septic dogs, 5 hrs posttreatment
[5] = septic dogs, baseline (before bacteria/treatment)
[6] = septic dogs, septic shock (before treatment)
[7] = septic dogs, septic shock condition (before treatment)
[8] = septic dogs, listed as gentisic, sodium salt

O=C(O)c1cc(O)c(O)c(O)c1 [gallic acid, 3,4,5 trihydroxybenzoic acid]
pH in unbuffered solution [1]: 4.2 | Systemic vascular resistance ([2]; septic dogs, 3 hrs post treatment): 1673 dynes S/cm^5 | ALT (alanine transaminase) [2, 3]: 187 ± 68*^+! IU | AST (aspartate transaminase) [2, 3]: 324 ± 104*^+$ IU | Arterial pH [2, 3]: 7.17 ± .10*^+@$ | CK (creatine kinase) [2, 3]: 3832 ± 3896*^+ IU | Cardiac output [2, 3]: 120 ± 400 mL/min/kg | LD (lactate dehydrogenase) [2, 3]: 415 ± 192*^+#@$^ IU | Lactate [2, 3]: .8 ± .4^#! nunol/L | Mean arterial pressure [2, 3]: 71 ± 10^*%@!$ mmHg | Oxygen delivery [2, 3]: 26 ± 7 mL/min/kg | Pulmonary wedge pressure [2, 3]: 11.6 ± 2.6^+ mmHg | Stroke work index [2, 3]: 62 ± 28*^+ ml mmHg/Kg | Troponin [2, 3]: 41 ± 92 ng/L | Systemic vascular resistance ([2]; septic dogs, 5 hrs post treatment): 1478 dynes S/cm^5 | ALT (alanine transaminase) [2, 4]: 189 ± 66*^+#! IU | AST (aspartate transaminase) [2, 4]: 363 ± 89*^+$ IU | Arterial pH [2, 4]: 7.12 | CK (creatine kinase) [2, 4]: 5065 IU | Cardiac output [2, 4]: 130 ± 40 mL/min/kg | LD (lactate dehydrogenase) [2, 4]: 513 IU | Lactate [2, 4]: .75 ± .35^#! nunol/L | Mean arterial pressure [2, 4]: 60 ± 5*^%@!$ mmHg | Oxygen delivery [2, 4]: 22 ± 3 mL/min/kg | Pulmonary wedge pressure [2, 4]: 11.3 ± 2.1^+ mmHg | Stroke work index [2, 4]: 49 ± 20*^+ ml mmHg/Kg | Troponin [2, 4]: 69 ± 157* ng/L | Systemic vascular resistance [2, 5]: 3566 dynes S/cm^5 | ALT (alanine transaminase) [2, 5]: 33 ± 16 IU | AST (aspartate transaminase) [2, 5]: 19 ± 3 IU | Arterial pH [2, 5]: 7.40 ± .05 | CK (creatine kinase) [2, 5]: 104 ± 35 IU | Cardiac output [2, 5]: 113 ± 20 mL/min/kg | Heart Rates [2, 5]: 49 ± 3 | LD (lactate dehydrogenase) [2, 5]: 36 ± 10 IU | Mean arterial pressure [2, 5]: 105 ± 14 mmHg | Oxygen delivery [2, 5]: 21 ± 6 mL/min/kg | Pulmonary wedge pressure [2, 5]: 11.3 ± 2.3 mmHg | Stroke work index [2, 5]: 212 ± 43 ml mmHg/Kg | Troponin ([2]; septic dogs, baseline (before bacteria/treatment), index of myocardial injury): 0 ± 3 ng/L | effect of treatment on mean arterial pressure (MAP) ([2]; septic dogs): did not produce an increase in MAP | effect of treatment on blood lactate concentration ([2]; septic dogs): reduction in lactate at 3 hrs and 5 hrs posttreatment | ALT (alanine transaminase) [2, 6]: 157 ± 61 IU | AST (aspartate transaminase) [2, 6]: 241 ± 104*^+$ IU | Arterial pH [2, 6]: 7.25 ± .10*^+$ | CK (creatine kinase) [2, 6]: 2650 ± 3339 IU | LD (lactate dehydrogenase) [2, 6]: 200 ± 98*^+$ IU | Systemic vascular resistance [2, 7]: 1257 dynes S/cm^5 | Cardiac output [2, 7]: 150 ± 40 mL/min/kg | Heart Rates [2, 7]: 125 ± 28*^+ | Mean arterial pressure [2, 7]: 64 ± 12*^+ mmHg | Oxygen delivery [2, 7]: 25 ± 6 mL/min/kg | Pulmonary wedge pressure [2, 7]: 10.4 ± 2.7^+ mmHg | Stroke work index [2, 7]: 72 ± 32*^+ ml mmHg/Kg | Troponin [2, 7]: 14 ± 15 ng/L

O=C([O-])c1cc(O)ccc1O.[Na+] [GSS, 2,5-dihydroxybenzoic acid sodium salt]
pH in unbuffered solution [1]: 8.2 | time of infusion until systemic blood pressure reached the baseline value ([2]; one dog of the gentisic septic group (FIG. 4)): approximately 20 minutes | arterial pH at the end of the study, compared among groups ([2]; septic dogs): higher | effect of treatment on stroke work index ([2]; septic dogs, 3 hr and 5 hr vs septic control group, did not reach statistical significance): an increase in stroke work index | effect of treatment on heart rate (HR) [2, 8]: significant decrease in HR | effect of treatment on heart rate (HR) ([2]; septic dogs, sodium salt): heart rates were lower | effect of treatment on systemic vascular resistance (SVR) ([2]; septic dogs, 3 hrs and 5 hrs posttreatment vs septic shock condition, sodium salt): increased SVR back to the baseline value; also recorded: an increase in SVR | ALT (alanine transaminase) [2, 3]: 209 ± 158*^+! IU | AST (aspartate transaminase) [2, 3]: 235 ± 167*^+$ IU | Arterial pH [2, 3]: 7.24 ± .08*^+$^ | CK (creatine kinase) [2, 3]: 1847 ± 1763^! IU | Oxygen delivery [2, 3]: 20 ± 7 mL/min/kg | ALT (alanine transaminase) [2, 4]: 225 ± 171*^+ IU | AST (aspartate transaminase) [2, 4]: 279 ± 208*^+!$ IU | Arterial pH [2, 4]: 7.20 ± 0.06*^+#$^ | CK (creatine kinase) [2, 4]: 2857 ± 2527*^!^ IU | Oxygen delivery [2, 4]: 20 ± 19 mL/min/kg | ALT (alanine transaminase) [2, 5]: 51 ± 29 IU | AST (aspartate transaminase) [2, 5]: 29 ± 31 IU | Arterial pH [2, 5]: 7.38 ± .03 | CK (creatine kinase) [2, 5]: 117 ± 106 IU | Oxygen delivery [2, 5]: 18 ± 3 mL/min/kg | effect of treatment on mean arterial pressure (MAP) ([2]; septic dogs, sodium salt): increased MAP back to the baseline value; also recorded: return in MAP to baseline | effect of treatment on blood lactate concentration [2, 8]: did not increase and even tended to decrease slightly | effect of treatment on blood lactate concentration ([2]; septic dogs, sodium salt): did not change | ALT (alanine transaminase) [2, 6]: 161 ± 132 IU | AST (aspartate transaminase) [2, 6]: 143 ± 113 IU | Arterial pH [2, 6]: 7.26 | CK (creatine kinase) [2, 6]: 521 ± 750 IU | Oxygen delivery [2, 7]: 26 ± 6 mL/min/kg

Reference: patent US9833425B2, “Gentisic acid is used to improve systemic hemodynamics, hepatic mitochondrial function and lactate acidemia in patients with septic shock” (priority 2015, dated 2017)
